Experimental data from US11285135B2 (AMGEN INC., priority 2016, dated 2022).
Read-outs that look alike come from different tables or passages of the source.

Experiments:
[1] = target: GDP-bound protein (aa 1-169), containing both G12C and C118A amino acid substitutions (Homo sapiens, UniProt P01116, C118A/G12C); experiment: Coupled Nucleotide Exchange Assay (SOS-mediated nucleotide exchange, AlphaScreen); type: biochemical; conditions: 2 hours compound pre-incubation
How it was run: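 AlphaScreen signal after SOS (aa 564-1049)/GTP-driven exchange (1 h) on GDP-loaded His-[…] G12C/C118A (aa 1-169), following a 2 h compound pre-incubation in HEPES pH 7.4 buffer with 10 mM MgCl2 and 0.01% Triton X-100. IC50s fitted by 4-parameter logistic model.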

[2] = tested on: Phosphorylation of ERK½ in MIA PaCa-2 cells; experiment: Phospho-ERK½ MSD Assay in MIA PaCa-2 cells; type: cell-based; conditions: 4 hours compound treatment, 10 ng/mL EGF for 10 min, read-out: p-ERK IC50 (MIA PaCa-2)
Experimental: (§1) Phospho-ERK½ MSD Assay: MIA PaCa-2 (ATCC® CRL-1420™) and A549 (ATCC® CCL-185™) cells were cultured in RPMI 1640 Medium (ThermoFisher Scientific 11875093) containing 10% fetal bovine serum (ThermoFisher Scientific 16000044) and 1× penicillin-streptomycin-glutamine (ThermoFisher Scientific 10378016). Sixteen hours prior to compound treatment, MIA PaCa-2 or A549 cells were seeded in 96-well cell culture plates at a density of 25,000 cells/well and incubated at 37° C., 5% CO2. A compound dose-response titration was diluted in growth media, added to appropriate wells of a cell culture plate, and then incubated at 37° C., 5% CO2 for 4 hours. Following compound treatment, cells were stimulated with 10 ng/mL EGF (Roche 11376454001) for 10 min, washed with ice-cold Dulbecco's phosphate-buffered saline, no Ca^2+ or Mg^2+ (ThermoFisher Scientific 14190144), and then lysed in RIPA buffer (50 mM Tris-HCl pH 7.5, 1% Igepal, 0.5% sodium deoxycholate, 150 mM NaCl, and 0.5% sodium dodecyl sulfate) containing protease inhibitors (Roche 4693132001) and phosphatase inhibitors (Roche 4906837001). Cell lysates were stored frozen at −80° C. overnight. Phosphorylation of ERK½ in compound-treated lysates was assayed using Phospho-ERK½ Whole Cell Lysate kits (Meso Scale Discovery K151DWD) according to the manufacturer's protocol. Assay plates were read on a Meso Scale Discovery Sector Imager 6000, and data were analyzed using a 4-parameter logistic model to calculate IC50 values.

[3] = tested on: Phosphorylation of ERK½ in A549 cells; experiment: Phospho-ERK½ MSD Assay in A549 cells; type: cell-based; conditions: 4 hours compound treatment, 10 ng/mL EGF for 10 min, read-out: p-ERK IC50 (A549)
Experimental: as §1

[4] = Homo sapiens, MIA PaCa-2, MIA PaCa-2 cells

Chain of GDP-bound protein (aa 1-169), containing both G12C and C118A amino acid substitutions (P01116 1-169 isoform P01116-2 G12C/C118A): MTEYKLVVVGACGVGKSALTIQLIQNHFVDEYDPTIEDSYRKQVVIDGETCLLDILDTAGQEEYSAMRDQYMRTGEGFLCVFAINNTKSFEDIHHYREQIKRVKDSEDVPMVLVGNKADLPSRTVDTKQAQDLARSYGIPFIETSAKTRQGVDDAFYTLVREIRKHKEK

Row | Coupled exchange IC50 [1] [nM] | IC50 ([2]; MIA PaCa-2 cells) [nM] | IC50 ([3]; A549 cells) [nM] | IC50 ([3]; Homo sapiens, A549, A549 cells) [nM] | IC50 ([3]; A549 cells, listed as 8-6-7) [nM] | IC50 [2, 4] [nM] | Structure (SMILES)
1 | 209 |  |  | > 100000 |  | 1860 | C=CC(=O)N1CCN(c2snc3c(F)c(-c4cc(O)cc5ccccc45)c(Cl)cc23)C(CO)C1 (stereo in doubt) [Example 1-7, 1-((3R)-4-(5-chloro-7-fluoro-6-(3-hydroxy-1-naphthalenyl)-2,1-benzothiazol-3-yl)-3-(hydroxymethyl)-1-piperazinyl)-2-propen-1-one]
2 | 695 |  |  | > 100000 |  | 8200 | C=CC(=O)N1CCN(c2snc3c(F)c(-c4cc(O)cc5ccccc45)c(Cl)cc23)C(CCO)C1 (stereo in doubt) [Example 1-11, 1-((3S)-4-(5-chloro-7-fluoro-6-(3-hydroxy-1-naphthalenyl)-2,1-benzothiazol-3-yl)-3-(2-hydroxyethyl)-1-piperazinyl)-2-propen-1-one]
3 | 355 |  |  | > 33300 |  | 2550 | C=CC(=O)N1CCN(c2snc3c(F)c(-c4cc(O)ccc4Br)c(Cl)cc23)CC1 [Example 1-1, 1-(4-(6-(2-bromo-5-hydroxyphenyl)-5-chloro-7-fluorobenzo[c]isothiazol-3-yl)piperazin-1-yl)prop-2-en-1-one]
4 | 2380 |  |  | > 100000 |  | 6080 | C=CC(=O)N1CCN(c2snc3c(F)c(-c4c[nH]c5ccccc45)c(Cl)cc23)CC1 [Example 1-2, 1-(4-(5-chloro-7-fluoro-6-(1H-indol-3-yl)-2,1-benzothiazol-3-yl)-1-piperazinyl)-2-propen-1-one]
5 | >10000 |  |  | > 100000 |  | > 100000 | C=CC(=O)N1CCN(c2snc3cc(-c4cc(OC)cc5ccccc45)c(Cl)cc23)CC1 [Example 1-4, 1-(4-(5-chloro-6-(3-methoxy-1-naphthalenyl)-2,1-benzothiazol-3-yl)-1-piperazinyl)-2-propen-1-one]
6 | 2880 |  |  | > 100000 |  | 36200 | C=CC(=O)N1CCN(c2snc3cc(-c4c(O)cccc4F)c(Cl)cc23)CC1 [Example 1-6, 1-(4-(5-chloro-6-(2-fluoro-6-hydroxyphenyl)-2,1-benzothiazol-3-yl)-1-piperazinyl)-2-propen-1-one]
7 | 381 |  |  | 11100 |  | 1090 | C=CC(=O)N1CCN(c2snc3c(F)c(-c4c(C)ccc5[nH]ncc45)c(Cl)cc23)[C@@H](C)C1 [Example 1-10, 1-((3S)-4-(5-chloro-7-fluoro-6-(5-methyl-1H-indazol-4-yl)-2,1-benzothiazol-3-yl)-3-methyl-1-piperazinyl)-2-propen-1-one]
8 | 1780 |  |  | > 100000 |  | 5030 | C=CC(=O)N1CCN(c2snc3c(F)c(-c4c(O)ccc5ccccc45)c(Cl)cc23)CC1 [Example 1-14, 1-(4-(5-chloro-7-fluoro-6-(2-hydroxy-1-naphthalenyl)-2,1-benzothiazol-3-yl)-1-piperazinyl)-2-propen-1-one]
9 | 562 |  |  | > 100000 |  | 4700 | C=CC(=O)N1CCN(c2snc3c(F)c(-c4cc(O)cc5ccccc45)c(Cl)cc23)[C@@H](CO)C1 [Example 1-15]
10 | 297 | 1330 |  | > 100000 |  |  | C=CC(=O)N1CCN(c2snc3c(F)c(-c4cc(O)cc5ccccc45)c(Cl)cc23)[C@@H](C)C1 [Example 1-19, 1-((3S)-4-(5-chloro-7-fluoro-6-(3-hydroxy-1-naphthalenyl)-2,1-benzothiazol-3-yl)-3-methyl-1-piperazinyl)-2-propen-1-one]
11 | 683 |  |  | > 100000 |  | 4990 | C=CC(=O)N1CC(Nc2snc3c(F)c(-c4cc(O)cc5ccccc45)c(Cl)cc23)C1 [Example 1-20, 1-(3-((5-chloro-7-fluoro-6-(3-hydroxy-1-naphthalenyl)-2,1-benzothiazol-3-yl)amino)-1-azetidinyl)-2-propen-1-one]
12 | 1300 |  |  | > 100000 |  | 4890 | C=CC(=O)N1CCN(c2snc3c(F)c(-c4cc(O)cc5ccccc45)c(Cl)cc23)[C@H](C)C1 [Example 1-21, 1-((3R)-4-(5-chloro-7-fluoro-6-(3-hydroxy-1-naphthalenyl)-2,1-benzothiazol-3-yl)-3-methyl-1-piperazinyl)-2-propen-1-one]
13 | 341 |  |  | 3700 |  | 1890 | C=CC(=O)N1CCN(c2snc3nc(-c4cc(O)cc5ccccc45)c(Cl)cc23)CC1 [Example 2-1, 1-(4-(5-chloro-6-(3-hydroxy-1-naphthalenyl)[1,2]thiazolo[3,4-b]pyridin-3-yl)-1-piperazinyl)-2-propen-1-one]

Continued, compound first:

Row | Structure (SMILES) | Coupled exchange IC50 [1] [nM] | IC50 ([2]; MIA PaCa-2 cells) [nM] | IC50 ([3]; A549 cells) [nM] | IC50 ([3]; Homo sapiens, A549, A549 cells) [nM] | IC50 ([3]; A549 cells, listed as 8-6-7) [nM] | IC50 [2, 4] [nM]
14 | C=CC(=O)N1CCN(c2nc(=O)n(-c3ccccc3C(C)C)c3cc(-c4c(O)cccc4F)c(Cl)cc23)CC1 (single isomer, unassigned) [Example 8-1-1, 6-chloro-7-(2-fluoro-6-hydroxyphenyl)-1-(2-(2-propanyl)phenyl)-4-(4-(2-propenoyl)-1-piperazinyl)-2(1H)-quinazolinone] | 172 | 46 | 69800 |  |  | 
15 | C=CC(=O)N1CCN(c2nc(=O)n(-c3ccccc3C(C)C)c3cc(-c4c(O)cccc4F)c(Cl)cc23)CC1 (single isomer, unassigned) [Example 8-1-2, 6-Chloro-7-(2-fluoro-6-hydroxyphenyl)-1-(2-(2-propanyl)phenyl)-4-(4-(2-propenoyl)-1-piperazinyl)-2(1H)-quinazolinone] | 322 | 811 | > 100000 |  |  | 
16 | C=CC(=O)N1CCN(c2nc(=O)n(-c3ccccc3C(C)C)c3cc(-c4c(O)cccc4F)c(Cl)cc23)[C@@H](C)C1 (single isomer, unassigned) [Example 8-3-1] | 282 | 408 |  | > 100000 |  | 
17 | C=CC(=O)N1CCN(c2nc(=O)n(-c3ccccc3C(C)C)c3cc(-c4c(O)cccc4F)c(Cl)cc23)[C@@H](C)C1 (single isomer, unassigned) [Example 8-3-2] | 340 | 28 | > 100000 |  |  | 
18 | C=CC(=O)N1CCN(c2nc(=O)n(-c3ccccc3C(C)C)c3nc(-c4c(O)cccc4F)c(Cl)cc23)[C@@H](C)C1 (single isomer, unassigned) [Example 8-6-1] | 66 | 10 | > 33300 |  |  | 
19 | C=CC(=O)N1CCN(c2nc(=O)n(-c3ccccc3C(C)C)c3nc(-c4c(O)cccc4F)c(Cl)cc23)[C@@H](C)C1 (single isomer, unassigned) [Example 8-6-2] | 185 | 128 |  |  | > 100000 | 
20 | C=CC(=O)N1CCN(c2nc(=O)n(-c3ccccc3C(C)C)c3cc(-c4c(C)ccc5[nH]ncc45)c(Cl)cc23)CC1 (single isomer, unassigned) [Example 11-1-1, 6-chloro-7-(5-methyl-1H-indazol-4-yl)-1-(2-(2-propanyl)phenyl)-4-(4-(2-propenoyl)-1-piperazinyl)-2(1H)-quinazolinone] | 231 | 247 |  | 42900 |  | 
21 | C=CC(=O)N1CCN(c2nc(=O)n(-c3ccccc3C(C)C)c3cc(-c4c(C)ccc5[nH]ncc45)c(Cl)cc23)CC1 (single isomer, unassigned) [Example 11-1-2, 6-chloro-7-(5-methyl-1H-indazol-4-yl)-1-(2-(2-propanyl)phenyl)-4-(4-(2-propenoyl)-1-piperazinyl)-2(1H)-quinazolinone] | 151 | 16 | 21700 |  |  | 
22 | C=CC(=O)N1CCN(c2nc(=O)n(-c3ccccc3C(C)C)c3cc(-c4c(C)ccc5[nH]ncc45)c(Cl)cc23)[C@@H](C)C1 (single isomer, unassigned) [Example 11-2-1] | 219 | 54 | 10000 |  |  | 
23 | C=CC(=O)N1CCN(c2nc(=O)n(-c3ccccc3C(C)C)c3cc(-c4c(C)ccc5[nH]ncc45)c(Cl)cc23)[C@@H](C)C1 (single isomer, unassigned) [Example 11-2-2] | 256 | 6 | 26400 |  |  | 
